Measurements from US10787444B2, “Compounds for the modulation of myc activity” (Syros Pharmaceuticals, Inc., priority 2015, dated 2020).
pIC50: −log10 of the molar value. Like-named read-outs stand apart in the source and are kept apart here.

Key:
c-Myc/Max/Ebox DNA = molecular target: T1, c-Myc/Max/Ebox DNA (Homo sapiens, UniProt P01106); assay: c-Myc/Max/Ebox DNA AlphaScreen Assay; format: binding; conditions: calculated IC50 class
T1 construct: his6 (cleaved yes)
Outline: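 Compounds were preincubated with free c-Myc (20 nM), biotinylated single-Ebox DNA (10 nM) and Ni acceptor beads before his6-Max (5 nM) and streptavidin donor beads were added. Buffer was 50 mM HEPES pH 8.0, 150 mM NaCl, BSA, Tween20, glycogen and DTT, with DMSO ≤2%. After 2 h incubation, AlphaScreen signal was read at 680 nm excitation and 520–620 nm emission.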

[1] = test system: human small lung cancer cell line H2171; assay: Cell Viability Assay (ATPlite); format: cell-based; conditions: read-out: H2171 Activity
Outline: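 H2171 cells were plated at 20,000 cells/mL and dosed immediately by pin transfer with a 10-point dose series in DMSO. After three days at 37° C, ATPlite luminescence served as the viability readout.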

[2] = Homo sapiens, NCI-H2171, 72 h, Table 2, compounds of FIG. 1, H2171 cells, three days, ATPlite, calculated IC50 class
[3] = Table 2, compounds of FIG. 1, H2171 cells, three days, ATPlite, calculated IC50 class

T1 sequence (P01106 whole entry): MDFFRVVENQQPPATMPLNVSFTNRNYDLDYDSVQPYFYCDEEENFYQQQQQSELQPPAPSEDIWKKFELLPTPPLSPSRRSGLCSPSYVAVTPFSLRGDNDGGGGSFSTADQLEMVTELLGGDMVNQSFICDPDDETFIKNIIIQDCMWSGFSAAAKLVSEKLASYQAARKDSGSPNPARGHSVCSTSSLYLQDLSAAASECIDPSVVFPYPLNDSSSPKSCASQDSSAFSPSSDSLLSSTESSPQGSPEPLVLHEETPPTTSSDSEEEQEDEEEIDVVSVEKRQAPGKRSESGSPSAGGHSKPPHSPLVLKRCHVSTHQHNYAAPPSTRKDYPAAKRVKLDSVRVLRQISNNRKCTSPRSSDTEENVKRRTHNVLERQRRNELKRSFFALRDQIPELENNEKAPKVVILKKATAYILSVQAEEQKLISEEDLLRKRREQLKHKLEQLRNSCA

Question: Which results are given for `COCCNCCC(=O)Nc1sc2c(c1-c1nc3ccccc3s1)CC(C)NC2C` (single isomer, unassigned) [Compound 508, N-(3-(Benzo[d]thiazol-2-yl)-5,7-dimethyl-4,5,6,7-tetrahydrothieno[2,3-c]pyridin-2-yl)-3-((2-methoxyethyl)amino)propanamide]?
Answer: pIC50 (c-Myc/Max/Ebox DNA; Table 2, compounds of FIG. 1): 5.00 to 6.00; pIC50 [1, 2]: > 6.52

Question: How did the pIC50 (c-Myc/Max/Ebox DNA; Table 2, compounds of FIG. 1) turn out when `COCCNCCC(=O)Nc1sc2c(c1-c1nc3cc(-c4ccnc(NC(C)=O)c4)ccc3s1)CCNC2` [compound 342] was run?
Answer: > 6.52

Question: And the pIC50 [1, 2]?
Answer: > 6.52

Question: With `COCCNCCC(=O)Nc1sc2c(c1-c1nc3cc(-c4cncc(OC)c4)ccc3s1)CCNC2` [compound 349] as the compound, how does the pIC50 (c-Myc/Max/Ebox DNA; Table 2, compounds of FIG. 1) read?
Answer: > 6.52

Question: What about the pIC50 [1, 2] of the same compound?
Answer: > 6.52

Question: With `COCCNCCC(=O)Nc1sc2c(c1-c1nc3c(C(F)(F)F)cccc3s1)CCNC2` [compound 611] as the compound, how does the pIC50 (c-Myc/Max/Ebox DNA; Table 2, compounds of FIG. 1) read?
Answer: > 6.52

Question: What about the pIC50 [1, 2] of the same compound?
Answer: > 6.52

Question: How did the pIC50 (c-Myc/Max/Ebox DNA; Table 2, compounds of FIG. 1) turn out when `O=C(CCNCc1c[nH]cn1)Nc1sc2c(c1-c1nc3ccccc3s1)CCNC2` [Compound 190, 3-(((1H-imidazol-4-yl)methyl)amino)-N-(3-(benzo[d]thiazol-2-yl)-4,5,6,7-tetrahydrothieno[2,3-c]pyridin-2-yl)propanamide] was run?
Answer: > 6.52

Question: What about the pIC50 [1, 2] of the same compound?
Answer: > 6.52

Question: Which results are given for `COCCNCCC(=O)Nc1sc2c(c1-c1nc3cc(-c4cnn(C)c4)ccc3s1)CC(C)NC2C` (single isomer, unassigned) [Compound 567, N-(5,7-Dimethyl-3-(5-(1-methyl-1H-pyrazol-4-yl)benzo[d]thiazol-2-yl)-4,5,6,7-tetrahydrothieno[2,3-c]pyridin-2-yl)-3-((2-methoxyethyl)amino)propanamide]?
Answer: pIC50 (c-Myc/Max/Ebox DNA; Table 2, compounds of FIG. 1): 5.00 to 6.00; pIC50 [1, 3]: > 6.52

Question: Which results are given for `CC[C@H](C)NCCC(=O)Nc1sc2c(c1-c1nc3ccccc3s1)CC(C)NC2C` (single isomer, unassigned) [Compound 621]?
Answer: pIC50 (c-Myc/Max/Ebox DNA; Table 2, compounds of FIG. 1): < 5.00; pIC50 [1, 3]: 5.00 to 6.00

Question: `CC[C@H](C)NCCC(=O)Nc1sc2c(c1-c1nc3ccccc3s1)CCNC2` [Compound 154, (S)—N-(3-(benzo[d]thiazol-2-yl)-4,5,6,7-tetrahydrothieno[2,3-c]pyridin-2-yl)-3-(sec-butylamino) propanamide] was tested. Which pIC50 (c-Myc/Max/Ebox DNA; Table 2, compounds of FIG. 1) did it give?
Answer: 6.00 to 6.52

Question: And the pIC50 [1, 2]?
Answer: > 6.52

Question: `CC(C)NCCC(=O)Nc1sc2c(c1-c1nc3cc(C(=O)N4CCN(C)CC4)ccc3s1)CCNC2` [Compound 324, 3-(Isopropylamino)-N-(3-(5-(4-methylpiperazine-1-carbonyl)benzo[d]thiazol-2-yl)-4,5,6,7-tetrahydrothieno[2,3-c]pyridin-2-yl)propanamide] was tested. Which pIC50 (c-Myc/Max/Ebox DNA; Table 2, compounds of FIG. 1) did it give?
Answer: 6.00 to 6.52

Question: And the pIC50 [1, 2]?
Answer: 5.00 to 6.00

Question: Which results are given for `COCCNCCC(=O)Nc1sc2c(c1-c1nc3ccc(C4=CCNCC4)cc3s1)CCNC2` [compound 459]?
Answer: pIC50 (c-Myc/Max/Ebox DNA; Table 2, compounds of FIG. 1): > 6.52; pIC50 [1, 2]: > 6.52

Question: How did the pIC50 (c-Myc/Max/Ebox DNA; Table 3, compounds of FIG. 2) turn out when `CC(=O)Nc1sc2c(c1-c1nc3ccccc3s1)CCN(C(C)C)C2` [Compound 200, N-(3-(benzo[d]thiazol-2-yl)-6-isopropyl-4,5,6,7-tetrahydrothieno[2,3-c]pyridin-2-yl)acetamide] was run?
Answer: 6.00 to 6.52

Question: And the pIC50 ([1]; Homo sapiens, NCI-H2171, 72 h)?
Answer: 5.00 to 6.00

Question: With `CCC(C)N(CCC(=O)Nc1sc2c(c1-c1nc3ccccc3s1)CCN(CCNC(=O)C(F)(F)F)C2)C(C)=O` (stereo not drawn) [Compound 319, N-(3-(Benzo[d]thiazol-2-yl)-6-(2-(2,2,2-trifluoroacetamido)ethyl)-4,5,6,7-tetrahydrothieno[2,3-c]pyridin-2-yl)-3-(N-(sec-butyl)acetamido)propanamide] as the compound, how does the pIC50 (c-Myc/Max/Ebox DNA; Table 2, compounds of FIG. 1) read?
Answer: < 5.00

Question: And the pIC50 [1, 2]?
Answer: 6.00 to 6.52

Question: What does the source list for `COCCNCCC(=O)Nc1sc2c(c1-c1nc3cc(-c4ccncc4)ccc3s1)CC(C)NC2C` (single isomer, unassigned) [Compound 523, N-(5,7-dimethyl-3-(5-(pyridin-4-yl)benzo[d]thiazol-2-yl)-4,5,6,7-tetrahydrothieno[2,3-c]pyridin-2-yl)-3-((2-methoxyethyl)amino)propanamide]?
Answer: pIC50 (c-Myc/Max/Ebox DNA; Table 2, compounds of FIG. 1): 5.00 to 6.00; pIC50 [1, 3]: 6.00 to 6.52

Question: With `COCCNCCC(=O)Nc1sc2c(c1-c1nc3ccc(-c4ccc(O)nc4)cc3s1)CCNC2` [compound 374] as the compound, how does the pIC50 (c-Myc/Max/Ebox DNA; Table 2, compounds of FIG. 1) read?
Answer: > 6.52

Question: And the pIC50 [1, 2]?
Answer: > 6.52

Question: How did the pIC50 (c-Myc/Max/Ebox DNA; Table 2, compounds of FIG. 1) turn out when `O=C(O)CCOCCOCCOCCOCCOCCOCCNCCC(=O)Nc1sc2c(c1-c1nc3ccccc3s1)CCNC2` [Compound 623] was run?
Answer: > 6.52

Question: And the pIC50 [1, 2]?
Answer: > 6.52
